Assays:
[1] = test system: MV4-11; assay: Cytotoxicity against human MV4-11 cells assessed as cell viability after 72 hrs by MTT assay; type: functional, cell-based; settings: MV4-11, 72 h
[2] = test system: HeLa; assay: Cytotoxicity against human HeLa cells assessed as cell viability after 72 hrs by MTT assay; type: functional, cell-based
[3] = target: T1, Receptor-type tyrosine-protein kinase FLT3 (Homo sapiens, UniProt P36888); assay: Inhibition of human recombinant Flt3
T1 sequence (P36888 whole entry): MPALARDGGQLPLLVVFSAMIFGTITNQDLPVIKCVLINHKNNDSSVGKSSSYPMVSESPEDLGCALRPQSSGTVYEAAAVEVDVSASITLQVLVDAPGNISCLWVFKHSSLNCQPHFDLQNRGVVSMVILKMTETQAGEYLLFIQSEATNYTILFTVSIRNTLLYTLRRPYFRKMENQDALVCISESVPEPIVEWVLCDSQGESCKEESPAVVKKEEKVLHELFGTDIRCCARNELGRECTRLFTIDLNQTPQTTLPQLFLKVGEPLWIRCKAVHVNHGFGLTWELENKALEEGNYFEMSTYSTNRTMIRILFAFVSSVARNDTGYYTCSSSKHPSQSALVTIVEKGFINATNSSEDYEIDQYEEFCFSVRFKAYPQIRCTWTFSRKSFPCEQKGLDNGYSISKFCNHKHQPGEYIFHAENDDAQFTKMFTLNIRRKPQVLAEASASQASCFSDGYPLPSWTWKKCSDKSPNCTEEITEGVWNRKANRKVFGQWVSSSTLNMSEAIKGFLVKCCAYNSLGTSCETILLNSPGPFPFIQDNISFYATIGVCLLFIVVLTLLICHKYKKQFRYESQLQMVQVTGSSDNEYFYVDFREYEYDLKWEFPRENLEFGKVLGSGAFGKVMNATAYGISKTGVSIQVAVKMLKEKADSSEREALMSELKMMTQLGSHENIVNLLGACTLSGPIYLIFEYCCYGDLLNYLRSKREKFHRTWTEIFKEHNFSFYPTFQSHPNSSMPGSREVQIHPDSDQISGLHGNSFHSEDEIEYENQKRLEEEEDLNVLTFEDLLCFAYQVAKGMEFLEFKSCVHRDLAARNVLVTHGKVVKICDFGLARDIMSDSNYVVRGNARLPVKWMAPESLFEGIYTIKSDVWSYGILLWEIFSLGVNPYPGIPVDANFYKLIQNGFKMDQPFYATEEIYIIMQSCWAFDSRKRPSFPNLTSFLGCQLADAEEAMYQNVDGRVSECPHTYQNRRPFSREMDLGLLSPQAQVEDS

IC50 [3] [µM]	Structure (SMILES)	IC50 [1] [µM]	IC50 [2] [µM]
	CCOC(=O)c1csc2nc(-c3cccc(NC(=O)c4ccco4)c3)cn12	> 20	> 20
	CCOC(=O)c1csc2nc(-c3cccc(NC(=O)CCl)c3)cn12	17.7	20
0.095	CC(C)(C)c1cc(NC(=O)Nc2ccc(-c3cn4c(C(=O)NCCS(C)(=O)=O)csc4n3)cc2)no1	0.0049	> 20
	CC(C)(C)c1cc(NC(=O)Nc2ccc(-c3cn4c(C(=O)OCCN5CCOCC5)csc4n3)cc2)no1	0.146	> 20
	C=CC(=O)Nc1ccc(-c2cn3c(C(=O)OCC)csc3n2)cc1	2.93	> 20
0.022	CN(C)CCNC(=O)c1csc2nc(-c3ccc(NC(=O)Nc4cc(C(C)(C)C)on4)cc3)cn12	0.0097	20
	CCOC(=O)c1csc2nc(-c3ccc(NC(=O)Nc4cc(C(C)(C)C)on4)cc3)cn12	0.274	> 20
	CNC(=O)c1cc(Oc2ccc(NC(=O)Nc3ccc(Cl)c(C(F)(F)F)c3)cc2)ccn1 [SORAFENIB]	0.007	5.23
	CCOC(=O)c1csc2nc(-c3ccc(NC(=O)Nc4ccc(Br)cn4)cc3)cn12	2.44	> 20
	CCOC(=O)c1csc2nc(-c3ccc(NS(=O)(=O)c4ccc(C)cc4)cc3)cn12	> 20	> 20
	CCOC(=O)c1csc2nc(-c3ccc(NC(=O)CCl)cc3)cn12	9.07	> 20
	CCOC(=O)c1csc2nc(-c3cccc(NC(=O)CC)c3)cn12	> 20	> 20
	CCOC(=O)c1csc2nc(-c3ccc(NC(=O)Nc4ccccc4)cc3)cn12	> 20	> 20
	CCOC(=O)c1csc2nc(-c3ccc(NC(=O)CC)cc3)cn12	9.52	> 20
	CCOC(=O)c1csc2nc(-c3ccc(NC(=O)c4ccco4)cc3)cn12	9.92	> 20
	CCCS(=O)(=O)Nc1ccc(-c2cn3c(C(=O)OCC)csc3n2)cc1	> 20	> 20
	CC(C)(C)c1cc(NC(=O)Nc2ccc(-c3cn4c(C(=O)NCCO)csc4n3)cc2)no1	0.0156	> 20
	C=CC(=O)Nc1cccc(-c2cn3c(C(=O)OCC)csc3n2)c1	> 20	> 20
	CC(C)(C)c1cc(NC(=O)Nc2ccc(-c3cn4c(C(=O)NCCN5CCOCC5)csc4n3)cc2)no1	0.0163	> 20
